Measurements published in PubChem BioAssay (NCI).
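Briefly, cells in 96-well plates were exposed to five compound concentrations for 48 h, and endpoints were estimated by linear interpolation. GI50: concentration for 50% inhibition of growth. TGI: total growth inhibition.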

Key:
Test in all cases: DTP human tumour cell line panel, 48 h
HOP-62 NSCLC = system: HOP-62 NSCLC
SN12C renal = system: SN12C renal
M14 melanoma = system: M14 melanoma
OVCAR-5 ovarian = system: OVCAR-5 ovarian
HL-60(TB) leukemia = system: HL-60(TB) leukemia
SNB-19 CNS = system: SNB-19 CNS
UO-31 renal = system: UO-31 renal
CAKI-1 renal = system: CAKI-1 renal
HT29 colon = system: HT29 colon
K-562 leukemia = system: K-562 leukemia

Row | Compound | GI50 (HOP-62 NSCLC) [µM] | TGI (HOP-62 NSCLC) [µM] | GI50 (SN12C renal) [µM] | TGI (SN12C renal) [µM] | GI50 (M14 melanoma) [µM] | TGI (M14 melanoma) [µM] | GI50 (OVCAR-5 ovarian) [µM] | TGI (OVCAR-5 ovarian) [µM] | GI50 (HL-60(TB) leukemia) [µM] | TGI (HL-60(TB) leukemia) [µM] | GI50 (SNB-19 CNS) [µM] | TGI (SNB-19 CNS) [µM] | GI50 (UO-31 renal) [µM] | TGI (UO-31 renal) [µM] | TGI (CAKI-1 renal) [µM] | TGI (HT29 colon) [µM] | TGI (K-562 leukemia) [µM] | GI50 (CAKI-1 renal) [µM] | GI50 (HT29 colon) [µM] | GI50 (K-562 leukemia) [µM]
1 | Cc1ccc2[nH]cc(-c3nc(-c4c[nH]c5ncccc45)cs3)c2c1 | > 100 | > 100 | > 100 | > 100 | > 100 | > 100 | > 100 | > 100 | > 100 | > 100 | > 100 | > 100 | 0.244 | > 100 | – | – | – | – | – | –
2 | CCCC/C=C1\CCC(CN2CCCCC2)C1=O (stereo unspecified) | – | 49.4 | – | 25.9 | – | 24.4 | – | 49.9 | – | 14.4 | – | 49.4 | – | 47.7 | 17.8 | 23.7 | 22.8 | – | – | –
3 | COc1ccc2[nH]c(C(=O)N3CC(CCl)c4ccc(N)cc43)cc2c1 (stereo unspecified) | – | > 100 | – | 1.62 | – | 0.319 | – | > 30.1 | – | 0.631 | – | > 44.5 | – | – | 0.299 | 0.508 | 0.494 | – | – | –
4 | CC(=O)OC(Cc1cc(C=C(C(F)(F)F)C(F)(F)F)cc(C)n1)(C(F)(F)F)C(F)(F)F | – | 3.42 | – | 3.16 | – | 4.08 | – | 4.58 | – | 1.18 | – | 4.38 | – | 3.08 | 3.45 | 5.32 | 4.28 | – | – | –
5 | O=C1C(Br)=CC2([N+](=O)[O-])CCNc3c(O)c4c5c(c3C2=C1Br)=NCCC=5C=N4 (stereo unspecified) | – | 11 | – | 5.52 | – | – | – | 2.39 | – | 0.454 | – | 9.72 | – | 22.9 | 5.25 | 7.24 | 2.33 | – | – | –
6 | COc1ccc2c3c1OC1CC(O)C=CC31CCN(C)C2 (stereo unspecified) | – | > 150 | – | > 150 | – | – | – | > 150 | – | > 150 | – | > 150 | – | > 150 | > 150 | > 150 | > 150 | – | – | –
7 | COC(=O)/C=C\Sc1ccn(/C=C\C(=O)OC)c(=S)n1 | – | 32.4 | – | 82.9 | – | > 100 | – | > 100 | – | > 100 | – | 41.6 | – | 50.5 | 31.9 | 52.9 | > 100 | – | – | –
8 | CN(C)c1ccc(N2C(=S)SC(=Nc3ccccc3)C2=Nc2ccccc2)cc1 | – | > 100 | – | > 100 | – | > 100 | – | > 100 | – | > 100 | – | > 100 | – | > 100 | > 100 | – | > 100 | – | – | –
9 | CC1(C)OP23(NC(=O)OC2(C(F)(F)F)c2ccccc2O3)OC1(C)C (stereo unspecified) | – | – | – | > 100 | – | > 100 | – | – | – | > 100 | – | > 100 | – | > 100 | – | > 100 | > 100 | – | – | –
10 | CCOC(=O)/C(O)=C1\C(=O)N(C)C(=O)C1c1ccc(OC)c(OC)c1 (stereo unspecified) | – | > 100 | – | > 100 | – | – | – | > 100 | – | > 100 | – | > 100 | – | > 100 | > 100 | > 100 | > 100 | – | – | –
11 | CC(=O)O[C@H]1CC[C@@]2(C)C(=CC[C@@H]3[C@@H]2CC[C@]2(C)C(c4cccnc4)=CC[C@@H]32)C1 | 6.24 | > 100 | 17.2 | > 100 | 5.67 | > 100 | 18.7 | > 100 | 7.36 | > 100 | 24.1 | > 100 | 5.47 | > 100 | > 100 | 12.7 | > 100 | 8.38 | 3.07 | 4.04
